The values that follow come from patent US8609669B2, “Potassium channel modulators” (AbbVie Inc., priority 2010, dated 2013).

Test [1] relates to SNL-induced tactile allodynia. In words: Spinal nerve ligation (SNL) model of neuropathic pain. The conditions noted are these: rat SNL, about 30 mg/kg i.p., 30 minutes or more before testing. It counts as in vivo, Sprague-Dawley rats. The source says: (§1) Adult male Sprague-Dawley rats (250-300 g body weight, Charles River Laboratories, Portage, Mich.) were used. Animal handling and experimental protocols were approved by the Institutional Animal Care and Use Committee (IACUC) at Abbott Laboratories. For all surgical procedures, animals were maintained under isoflurane anesthesia (4-5% to induce, 1-3% to maintain), and the incision sites were sterilized using a 10% povidone-iodine solution prior to and after surgeries.
Tactile (mechanical) allodynia was measured using calibrated von Frey filaments (Stoelting, Wood Dale, Ill.) as described in Chaplan, S. R., F. W. Bach, J. M. Pogrel, J. M. Chung and T. L. Yaksh, 1994, Quantitative assessment of tactile allodynia in the rat paw, J. Neurosci. Methods, 53, 55. Rats were placed into inverted individual plastic containers (20×12.5×20 cm) on top of a suspended wire mesh grid, and acclimated to the test chambers for 20 minutes. The von Frey filaments were presented perpendicularly to the plantar surface of the selected hind paw, and then held in this position for approximately 8 seconds with enough force to cause a slight bend in the filament. Positive responses include an abrupt withdrawal of the hind paw from the stimulus, or flinching behavior immediately following removal of the stimulus. […]

The target in test [2] is T1, KCNQ 2/3 channels (HEK293 cells stably expressing human KCNQ2 and KCNQ3 subunits) (Homo sapiens, UniProt O43525+O43526).
T1 construct: expressed in transfected cells; host or cells: HEK293
In words: KCNQ2/3 channel activation, thallium flux FLIPR assay (BTC-AM dye). Particulars: for Emax: HEK293, maximum response relative to response of retigabine at 10 μM (set at 100%), read-out: Max. %; for EC50: HEK293 cells expressing human KCNQ2 and KCNQ3, FLIPR thallium flux. It counts as cell-based. In a few lines:
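HEK293 cells stably expressing human KCNQ2/KCNQ3 were loaded with BTC-AM and exposed to compound for 4 min in pH 7.3 gluconate buffer with ouabain. Thallium flux was triggered with 6 mM TlNO3 and 10 mM K2SO4 (stock additions) and fluorescence (ex 488, em 540 nm) recorded for 3 min. EC50 came from responses over baseline; maximal response is relative to 10 μM retigabine (100%).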

Test [3] concerns CCI-induced mechanical allodynia. In words: Chronic constriction injury (CCI) model of neuropathic pain (Bennett model). It counts as in vivo, Sprague-Dawley rats. Particulars: rat CCI, about 30 mg/kg i.p., 30 minutes or more before testing.
Text: as §1
Tactile (mechanical) allodynia was measured using calibrated von Frey filaments (Stoelting, Wood Dale, Ill.) as described in Chaplan, S. R., F. W. Bach, J. M. Pogrel, J. M. Chung and T. L. Yaksh, 1994, Quantitative assessment of tactile allodynia in the rat paw, J. Neurosci. Methods, 53, 55. Rats were placed into inverted individual plastic containers (20×12.5×20 cm) on top of a suspended wire mesh grid, and acclimated to the test chambers for 20 minutes. The von Frey filaments were presented perpendicularly to the plantar surface of the selected hind paw, and then held in this position for approximately 8 seconds with enough force to cause a slight bend in the filament. Positive responses include an abrupt withdrawal of the hind paw from the stimulus, or flinching behavior immediately following removal of the stimulus.
A model of chronic constriction injury-induced (CCI) neuropathic pain was produced by following the method of Bennett and Xie (1988, Pain, 33, 87-107). The right common sciatic nerve was isolated at mid-thigh level, and loosely ligated by 4 chromic gut (5-0) ties separated by an interval of 1 mm. Sham rats can underwent the same procedure, but without sciatic nerve constriction. All animals can be left to recover for at least 2 weeks and no more than 5 weeks prior to testing of mechanical allodynia. Compounds were injected (i.p.) 30 minutes or more before testing.

For orientation: EC50 means the midpoint of the concentration-response curve. Read a high EC50 as lower potency in that assay. For `O=C(CCC1CCCC1)Nc1nn2cccnc2c1-c1ccc(Cl)cc1` [Example 7, N-[3-(4-chlorophenyl)pyrazolo[1,5-a]pyrimidin-2-yl]-3-cyclopentylpropanamide], the “change in paw withdrawal latency versus vehicle” value (from here on “change”) in test [1] is recorded as “statistically significant change”. Further, in test [2], the Emax amounted to 150% and the EC50 lay within 100 to 500 nM.

For `Cc1cnc2c(-c3ccc(F)c(C)c3)c(NC(=O)CCC3CCCCC3)nn2c1` [Example 35, 3-cyclohexyl-N-[3-(4-fluoro-3-methylphenyl)-6-methylpyrazolo[1,5-a]pyrimidin-2-yl]propanamide], the “change” value in test [3] was “statistically significant change”. Besides, in test [2], the Emax was found to be 116% and the concentration giving a half-maximal response (EC50) is under 100 nM.

As for `Cc1ccnc2c(-c3ccc(OC(F)(F)F)cc3)c(NC(=O)Cc3ccc(F)cc3)nn12` [Example 9, 2-(4-fluorophenyl)-N-{7-methyl-3-[4-(trifluoromethoxy)phenyl]pyrazolo[1,5-a]pyrimidin-2-yl}acetamide], the “change” value in test [3] is “statistically significant change”. In addition, in test [1], the “change” value is recorded as “statistically significant change”. Further, in test [2], the Emax stood at 119% and the half-maximal effective concentration (EC50) lay in the range of 500 to 1000 nM.

As for `Cc1cnc2c(Cc3ccc(F)cc3)c(NC(=O)CCC3CCCCC3)nn2c1` [Example 77, 3-cyclohexyl-N-[3-(4-fluorobenzyl)-6-methylpyrazolo[1,5-a]pyrimidin-2-yl]propanamide], in test [2], the Emax is 133% and the half-maximal effective concentration (EC50) was under 100 nM.

Turning to `Cc1ccnc2c(-c3ccc(OC(F)(F)F)cc3)c(NC(=O)CC(C)(C)c3ccccc3)nn12` [Example 159, 3-methyl-N-{7-methyl-3-[4-(trifluoromethoxy)phenyl]pyrazolo[1,5-a]pyrimidin-2-yl}-3-phenylbutanamide], in test [2], the Emax turned out to be 136% and the EC50 was in the range of 500 to 1000 nM.

With `Cc1cnc2c(-c3ccc(C)c(Cl)c3)c(NC(=O)Cc3ccc(F)cc3)nn2c1` [Example 72, N-[3-(3-chloro-4-methylphenyl)-6-methylpyrazolo[1,5-a]pyrimidin-2-yl]-2-(4-fluorophenyl)acetamide], in test [2], the Emax was 247% and the EC50 was 100 to 500 nM.

For `Cc1cnc2c(-c3ccc(C)c(F)c3)c(NC(=O)CCC3CCCC3)nn2c1` [Example 20, 3-cyclopentyl-N-[3-(3-fluoro-4-methylphenyl)-6-methylpyrazolo[1,5-a]pyrimidin-2-yl]propanamide], in test [2], the Emax worked out at 120% and the 50% effective concentration (EC50) is under 100 nM.

For `Cc1cnc2c(-c3ccc(C(F)(F)F)cc3)c(NC(=O)CCc3ccccc3)nn2c1` [Example 59, N-{6-methyl-3-[4-(trifluoromethyl)phenyl]pyrazolo[1,5-a]pyrimidin-2-yl}-3-phenylpropanamide], in test [2], the Emax turned out to be 123% and the concentration for a half-maximal effect (EC50) was in the range of 100 to 500 nM.

Consider `O=C(CC12CC3CC(CC(C3)C1)C2)Nc1nn2cccnc2c1-c1ccc(OC(F)(F)F)cc1` [Example 142, 2-(adamantan-1-yl)-N-{3-[4-(trifluoromethoxy)phenyl]pyrazolo[1,5-a]pyrimidin-2-yl}acetamide], for which, in test [2], the Emax is 152% and the EC50 lay in the range of 1000 to 10000 nM.

Turning to `CC(C)(C)/C=C/c1c(NC(=O)Cc2ccc(F)cc2)nn2cccnc12` [Example 161, N-{3-[(1E)-3,3-dimethylbut-1-en-1-yl]pyrazolo[1,5-a]pyrimidin-2-yl}-2-(4-fluorophenyl)acetamide], in test [2], the Emax was found to be 107% and the EC50 is 100 to 500 nM.

As to `O=C(Cc1ccccn1)Nc1nn2cccnc2c1-c1ccc(Cl)cc1` [Example 100, N-[3-(4-chlorophenyl)pyrazolo[1,5-a]pyrimidin-2-yl]-2-(pyridin-2-yl)acetamide], in test [2], the Emax was -1% and the concentration for a half-maximal effect (EC50) was over 10000 nM.

For the compound `Cc1cc(C)n2nc(NC(=O)Cc3ccc(F)cc3)c(-c3ccccc3)c2n1` [Example 96, N-(5,7-dimethyl-3-phenylpyrazolo[1,5-a]pyrimidin-2-yl)-2-(4-fluorophenyl)acetamide], in test [2], the Emax is 206% and the EC50 lay in the range of 100 to 500 nM.

As to `O=C(CCC1CCCC1)Nc1nn2cccnc2c1-c1cccc(Cl)c1` [Example 56, N-[3-(3-chlorophenyl)pyrazolo[1,5-a]pyrimidin-2-yl]-3-cyclopentylpropanamide], in test [2], the Emax turned out to be 98% and the concentration giving a half-maximal response (EC50) lay in the range of 100 to 500 nM.

In the case of `CC(C)(C)CCC(=O)Nc1nn2cccnc2c1C(C)(C)C` [Example 170, N-(3-tert-butylpyrazolo[1,5-a]pyrimidin-2-yl)-4,4-dimethylpentanamide], in test [2], the Emax stood at 124% and the concentration giving a half-maximal response (EC50) lay in the range of 1000 to 10000 nM.

In the case of `CC(C)(CC(=O)Nc1nn2cccnc2c1-c1ccc(Cl)cc1)c1ccccc1` [Example 117, N-[3-(4-chlorophenyl)pyrazolo[1,5-a]pyrimidin-2-yl]-3-methyl-3-phenylbutanamide], in test [2], the Emax came to 64% and the half-maximal effective concentration (EC50) is over 10000 nM.

For the compound `COc1cccc(CC(=O)Nc2nn3c(C)cc(C)nc3c2-c2cccc(Cl)c2)c1` [Example 54, N-[3-(3-chlorophenyl)-5,7-dimethylpyrazolo[1,5-a]pyrimidin-2-yl]-2-(3-methoxyphenyl)acetamide], in test [2], the Emax was 67% and the concentration for a half-maximal effect (EC50) lay within 1000 to 10000 nM.

As for `O=C(CCC1CCCCC1)Nc1nn2cccnc2c1-c1ccc(Cl)cc1` [Example 157, N-[3-(4-chlorophenyl)pyrazolo[1,5-a]pyrimidin-2-yl]-3-cyclohexylpropanamide], in test [2], the Emax is 99% and the EC50 is under 100 nM.

Turning to `CC(C)(C)c1c(NC(=O)CC2CC3CCC2C3)nn2cccnc12` (racemic) [Example 121, (±)-exo-2-bicyclo[2.2.1]hept-2-yl-N-(3-tert-butylpyrazolo[1,5-a]pyrimidin-2-yl)acetamide], in test [2], the Emax came to 150% and the concentration giving a half-maximal response (EC50) is under 100 nM.

For the compound `Cc1ccnc2c(-c3cccc(Cl)c3)c(NC(=O)CCc3ccccc3)nn12` [Example 49, N-[3-(3-chlorophenyl)-7-methylpyrazolo[1,5-a]pyrimidin-2-yl]-3-phenylpropanamide], in test [2], the Emax is 123% and the EC50 lay within 1000 to 10000 nM.

For `Cc1cnc2c(Cc3ccc(F)cc3)c(NC(=O)CC3CCCC3)nn2c1` [Example 5, 2-cyclopentyl-N-(3-(4-fluorobenzyl)-6-methylpyrazolo[1,5-a]pyrimidin-2-yl)acetamide], in test [2], the Emax came to 143% and the half-maximal effective concentration (EC50) is under 100 nM.

In the case of `O=C(CC12CC3CC(CC(C3)C1)C2)Nc1nn2cccnc2c1-c1ccc(Cl)cc1` [Example 162, 2-(adamantan-1-yl)-N-[3-(4-chlorophenyl)pyrazolo[1,5-a]pyrimidin-2-yl]acetamide], in test [2], the Emax was found to be 128% and the EC50 is 500 to 1000 nM.

`Cc1cnc2c(-c3ccc(F)c(C)c3)c(NC(=O)C[S+]([O-])C3CCCC3)nn2c1` (stereo not drawn) [Example 173, 2-(cyclopentylsulfinyl)-N-[3-(4-fluoro-3-methylphenyl)-6-methylpyrazolo[1,5-a]pyrimidin-2-yl]acetamide]: in test [2], the Emax is 21% and the EC50 was over 10000 nM.

As to `Cc1cc(C)n2nc(NC(=O)CCC3CCCCC3)c(-c3ccc(Cl)c(C)c3)c2n1` [Example 48, N-[3-(4-chloro-3-methylphenyl)-5,7-dimethylpyrazolo[1,5-a]pyrimidin-2-yl]-3-cyclohexylpropanamide], in test [2], the Emax worked out at 68% and the EC50 is 1000 to 10000 nM.

Take `Cc1cc(C)n2nc(NC(=O)CC3CCCC3)c(-c3cccc(Cl)c3)c2n1` [Example 53, N-[3-(3-chlorophenyl)-5,7-dimethylpyrazolo[1,5-a]pyrimidin-2-yl]-2-cyclopentylacetamide]: in test [2], the Emax is 143% and the EC50 was under 100 nM.

Regarding `O=C(CCC1CCCCC1)Nc1nn2cccnc2c1-c1ccc(F)cc1` [Example 24, 3-cyclohexyl-N-[3-(4-fluorophenyl)pyrazolo[1,5-a]pyrimidin-2-yl]propanamide], in test [2], the Emax was 137% and the concentration for a half-maximal effect (EC50) fell in the range of 100 to 500 nM.
